According to patent US20250195521A1 (Revolution Medicines, Inc., priority 2020, published 2025):

Assays:
[1] = system: Capan-1 cells (K-Ras G12V); test: CellTiter-Glo cell viability, Capan-1; assay type: cell-based, human; conditions: Homo sapiens, CAPAN-1, 120 h, K-Ras G12V, 5-day treatment; read-out: Capan-1 Cell Viability IC50
Summary of the method: (§1)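 Compounds were dispensed directly onto seeded cells and incubated until day 5, then plates were equilibrated at room temperature for about 30 min before CellTiter-Glo luminescence readout. Signals were normalized as (sample/average DMSO)×100 and fitted with a four-parameter logistic model.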

KRAS Q61H = KRAS Q61H (Homo sapiens (Human), UniProt P01116+P62937, Q61H); test: Ras-Raf disruption/FRET/MOA assay (BRAF RBD, Cyclophilin A); assay type: biochemical
Summary of the method: (§2)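 Measured: compound-facilitated Cyclophilin A:Ras complex blocking RAF RBD binding. Conditions: 12.5 nM Ras-GMPPNP, 50 nM BRAF RBD, 25 μM CypA, 3 h plus 1.5 h detection. Output: IC50 from TR-FRET ratio.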

NRAS WT = NRAS WT (Homo sapiens (Human), UniProt P01111+P62937); test: as above; assay type: biochemical
Summary of the method: (§3)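 First, 25 μM Cyclophilin A, 12.5 nM His6-Ras-GMPPNP and 50 nM GST-BRAF RBD are mixed with diluted compound at pH 7.3. Next, 3 h at 25° C. Then 10 nM anti-His Eu-W1024 plus 50 nM anti-GST allophycocyanin for 1.5 h before TR-FRET reading.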

KRAS G13C = KRAS G13C (Homo sapiens (Human), UniProt P01116+P62937, G13C); test: as above; assay type: biochemical; conditions: read-out: KRAS G13C FRET IC50
Summary of the method: as §2

KRAS G12S = KRAS G12S (Homo sapiens (Human), UniProt P01116+P62937, G12S); test: as above; assay type: biochemical; conditions: read-out: KRAS G12S FRET IC50
Summary of the method: as §2

KRAS G13D = KRAS G13D (Homo sapiens (Human), UniProt P01116+P62937, G13D); test: as above; assay type: biochemical; conditions: read-out: KRAS G13D FRET data IC50
Summary of the method: as §2

KRAS G12C = KRAS G12C (Homo sapiens (Human), UniProt P01116+P62937, G12C); test: as above; assay type: biochemical; conditions: read-out: KRAS G12C FRET IC50
Summary of the method: as §2

NRAS Q61R = NRAS Q61R (Homo sapiens (Human), UniProt P01111+P62937, Q61R); test: as above; assay type: biochemical
Summary of the method: as §3

KRAS G12D = KRAS G12D (Homo sapiens (Human), UniProt P01116+P62937, G12D); test: as above; assay type: biochemical; conditions: read-out: KRAS G12D FRET IC50
Summary of the method: as §2

KRAS WT = KRAS WT (Homo sapiens (Human), UniProt P01116+P62937); test: as above; assay type: biochemical; conditions: read-out: KRAS WT FRET data IC50
Summary of the method: as §2

KRAS G12V = KRAS G12V (Homo sapiens (Human), UniProt P01116+P62937, G12V); test: as above; assay type: biochemical; conditions: read-out: KRAS G12V FRET IC50
Summary of the method: as §2

NRAS G12C = NRAS G12C (Homo sapiens (Human), UniProt P01111+P62937, G12C); test: as above; assay type: biochemical; conditions: read-out: NRAS G12C FRET data IC50
Summary of the method: as §3

[2] = system: NCI-H358 cells (K-Ras G12C); test: CellTiter-Glo cell viability, NCI-H358; assay type: cell-based, human; conditions: Homo sapiens, NCI-H358, 120 h, K-Ras G12C, 5-day treatment; read-out: H358 Cell Viability IC50
Summary of the method: as §1

[3] = system: K-Ras G12C (NCI-H358 cells); test: Potency assay: pERK in NCI-H358 cells; assay type: cell-based, human; conditions: Homo sapiens; NCI-H358 cells, 4 hours; read-out: pERK EC50 (H358 KRAS G12C)
Summary of the method: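 Cells plated the day before were exposed for 4 h at 37° C, 5% CO2 to a 10-point, 3-fold DMSO dilution series (10 mM top stock), in duplicate. Phospho-ERK was read by AlphaLISA SureFire Ultra or by In-Cell Western with DRAQ5 DNA stain, and IC50 came from a 4-parameter sigmoidal fit.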

KRAS G13C, sequence (P01116 other isoform, or with tags, fused parts or gaps G13C): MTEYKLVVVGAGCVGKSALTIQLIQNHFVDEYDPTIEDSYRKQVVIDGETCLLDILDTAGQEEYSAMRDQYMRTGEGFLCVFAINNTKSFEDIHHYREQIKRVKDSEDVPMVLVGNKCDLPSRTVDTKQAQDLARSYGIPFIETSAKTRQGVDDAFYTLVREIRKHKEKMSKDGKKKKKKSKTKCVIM
KRAS G13C, sequence (P62937 whole entry): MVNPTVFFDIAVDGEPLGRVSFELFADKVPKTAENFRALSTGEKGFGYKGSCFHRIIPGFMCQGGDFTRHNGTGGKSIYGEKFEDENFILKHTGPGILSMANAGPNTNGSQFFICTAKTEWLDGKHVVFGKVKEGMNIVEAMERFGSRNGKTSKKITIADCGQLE
NRAS Q61R, sequence (P01111 whole entry Q61R): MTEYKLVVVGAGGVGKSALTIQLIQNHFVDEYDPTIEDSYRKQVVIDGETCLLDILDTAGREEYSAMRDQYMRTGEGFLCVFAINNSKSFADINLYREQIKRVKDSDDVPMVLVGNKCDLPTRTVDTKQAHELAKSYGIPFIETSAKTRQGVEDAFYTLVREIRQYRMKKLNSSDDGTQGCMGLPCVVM
NRAS Q61R, sequence (P62937 whole entry): as the sequence (P62937 whole entry) above
NRAS WT, sequence (P01111 whole entry): as the sequence (P01111 whole entry Q61R) above, with R61Q counted along it
NRAS WT, sequence (P62937 whole entry): as the sequence (P62937 whole entry) above
KRAS G12V, sequence (P01116 other isoform, or with tags, fused parts or gaps G12V): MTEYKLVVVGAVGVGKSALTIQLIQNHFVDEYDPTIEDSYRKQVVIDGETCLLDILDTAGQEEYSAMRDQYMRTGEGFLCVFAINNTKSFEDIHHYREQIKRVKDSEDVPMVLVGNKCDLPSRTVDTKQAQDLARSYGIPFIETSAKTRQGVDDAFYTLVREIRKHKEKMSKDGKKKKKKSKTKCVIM
KRAS G12V, sequence (P62937 whole entry): as the sequence (P62937 whole entry) above
KRAS G12D, sequence (P01116 other isoform, or with tags, fused parts or gaps G12D): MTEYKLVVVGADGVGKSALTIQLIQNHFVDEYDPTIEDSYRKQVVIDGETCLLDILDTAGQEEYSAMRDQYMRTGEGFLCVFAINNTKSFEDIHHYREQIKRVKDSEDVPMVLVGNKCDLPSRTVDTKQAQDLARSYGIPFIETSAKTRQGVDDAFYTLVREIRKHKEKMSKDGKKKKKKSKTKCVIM
KRAS G12D, sequence (P62937 whole entry): as the sequence (P62937 whole entry) above
KRAS Q61H, sequence (P01116 other isoform, or with tags, fused parts or gaps Q61H): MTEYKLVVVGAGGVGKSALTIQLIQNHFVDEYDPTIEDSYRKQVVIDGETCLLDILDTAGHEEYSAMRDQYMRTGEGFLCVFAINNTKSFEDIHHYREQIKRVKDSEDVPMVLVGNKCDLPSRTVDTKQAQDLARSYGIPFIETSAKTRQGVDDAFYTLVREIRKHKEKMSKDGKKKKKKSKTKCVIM
KRAS Q61H, sequence (P62937 whole entry): as the sequence (P62937 whole entry) above
KRAS G12C, sequence (P01116-2 other isoform, or with tags, fused parts or gaps G12C): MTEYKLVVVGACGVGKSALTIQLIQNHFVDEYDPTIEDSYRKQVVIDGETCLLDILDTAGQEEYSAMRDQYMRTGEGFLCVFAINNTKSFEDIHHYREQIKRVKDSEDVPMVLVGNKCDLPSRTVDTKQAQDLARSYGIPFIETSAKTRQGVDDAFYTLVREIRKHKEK
KRAS G12C, sequence (P62937 whole entry): as the sequence (P62937 whole entry) above
KRAS G12S, sequence (P01116 other isoform, or with tags, fused parts or gaps G12S): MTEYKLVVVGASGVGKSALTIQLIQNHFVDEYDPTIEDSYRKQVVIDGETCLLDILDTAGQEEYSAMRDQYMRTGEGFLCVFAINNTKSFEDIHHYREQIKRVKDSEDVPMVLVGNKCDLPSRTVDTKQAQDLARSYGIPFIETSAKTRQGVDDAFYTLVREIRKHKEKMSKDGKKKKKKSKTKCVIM
KRAS G12S, sequence (P62937 whole entry): as the sequence (P62937 whole entry) above
KRAS WT, sequence (P01116 other isoform, or with tags, fused parts or gaps): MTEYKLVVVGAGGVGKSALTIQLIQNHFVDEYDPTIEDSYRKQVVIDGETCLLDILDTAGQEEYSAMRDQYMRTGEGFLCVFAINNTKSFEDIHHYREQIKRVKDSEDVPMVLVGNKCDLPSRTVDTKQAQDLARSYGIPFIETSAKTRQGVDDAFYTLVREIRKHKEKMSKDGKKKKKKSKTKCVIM
KRAS WT, sequence (P62937 whole entry): as the sequence (P62937 whole entry) above
KRAS G13D, sequence (P01116 other isoform, or with tags, fused parts or gaps G13D): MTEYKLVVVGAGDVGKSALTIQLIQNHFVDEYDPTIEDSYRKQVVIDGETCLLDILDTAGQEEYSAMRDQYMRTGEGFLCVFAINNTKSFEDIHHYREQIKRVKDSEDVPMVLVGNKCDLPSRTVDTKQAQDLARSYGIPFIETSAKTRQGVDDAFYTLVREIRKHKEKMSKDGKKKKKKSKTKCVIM
KRAS G13D, sequence (P62937 whole entry): as the sequence (P62937 whole entry) above
NRAS G12C, sequence (P01111 whole entry G12C): as the sequence (P01111 whole entry Q61R) above, with G12C, R61Q counted along it
NRAS G12C, sequence (P62937 whole entry): as the sequence (P62937 whole entry) above

## CCn1c(-c2cccnc2[C@H](C)OC)c2c3cc(ccc31)-c1csc(n1)C[C@H](NC(=O)[C@H](C(C)C)N(C)C(=O)N(C)C1COC1)C(=O)N1CCC[C@H](N1)C(=O)OCC(C)(C)C2 [Compound A334]
[1]
  IC50: 10 to 100 nM
KRAS Q61H
  IC50: 10 to 100 nM
NRAS WT
  IC50: 100 to 1000 nM
KRAS G13C
  IC50: 100 to 1000 nM
KRAS G12S
  IC50: 100 to 1000 nM
KRAS G13D
  IC50: 100 to 1000 nM
KRAS G12C
  IC50: 10 to 100 nM
NRAS Q61R
  IC50: 100 to 1000 nM
KRAS G12D
  IC50: 100 to 1000 nM
KRAS WT
  IC50: 100 to 1000 nM
KRAS G12V
  IC50: 100 to 1000 nM
NRAS G12C
  IC50: 10 to 100 nM
[2]
  IC50: 10 to 100 nM

## CCn1c(-c2cccnc2[C@H](C)OC)c2c3cc(ccc31)-c1csc(n1)C[C@H](NC(=O)[C@H](C(C)C)N(C)C(=O)N1CC(C(=O)O)C1)C(=O)N1CCC[C@H](N1)C(=O)OCC(C)(C)C2 [Compound A344]
[1]
  IC50: > 10000 nM
KRAS Q61H
  IC50: 100 to 1000 nM
NRAS WT
  IC50: 100 to 1000 nM
KRAS G13C
  IC50: 100 to 1000 nM
KRAS G12S
  IC50: 100 to 1000 nM
KRAS G13D
  IC50: 1000 to 10000 nM
KRAS G12C
  IC50: 100 to 1000 nM
NRAS Q61R
  IC50: 100 to 1000 nM
KRAS G12D
  IC50: 1000 to 10000 nM
KRAS WT
  IC50: 100 to 1000 nM
KRAS G12V
  IC50: 100 to 1000 nM
NRAS G12C
  IC50: 100 to 1000 nM
[3]
  EC50: < 5000 nM

## CCn1c(-c2cccnc2[C@H](C)OC)c2c3cc(ccc31)-c1csc(n1)C[C@H](NC(=O)[C@H](C(C)C)N(C)C(=O)N1CC(O)C1)C(=O)N1CCC[C@H](N1)C(=O)OCC(C)(C)C2 [Compound A358]
[1]
  IC50: 10 to 100 nM
KRAS Q61H
  IC50: 10 to 100 nM
NRAS WT
  IC50: 100 to 1000 nM
KRAS G13C
  IC50: 100 to 1000 nM
KRAS G12S
  IC50: 100 to 1000 nM
KRAS G13D
  IC50: 100 to 1000 nM
KRAS G12C
  IC50: 10 to 100 nM
NRAS Q61R
  IC50: 100 to 1000 nM
KRAS G12D
  IC50: 100 to 1000 nM
KRAS WT
  IC50: 100 to 1000 nM
KRAS G12V
  IC50: 100 to 1000 nM
NRAS G12C
  IC50: 10 to 100 nM
[3]
  EC50: < 5000 nM

## CCn1c(-c2cccnc2[C@H](C)OC)c2c3cc(ccc31)-c1csc(n1)C[C@H](NC(=O)[C@H](C(C)C)N(C)C(=O)N1CC[C@H](O)C1)C(=O)N1CCC[C@H](N1)C(=O)OCC(C)(C)C2 [Compound A401]
[1]
  IC50: 10 to 100 nM
KRAS Q61H
  IC50: 10 to 100 nM
NRAS WT
  IC50: 100 to 1000 nM
KRAS G13C
  IC50: 100 to 1000 nM
KRAS G12S
  IC50: 100 to 1000 nM
KRAS G13D
  IC50: 100 to 1000 nM
KRAS G12C
  IC50: 10 to 100 nM
NRAS Q61R
  IC50: 100 to 1000 nM
KRAS G12D
  IC50: 100 to 1000 nM
KRAS WT
  IC50: 100 to 1000 nM
KRAS G12V
  IC50: 100 to 1000 nM
NRAS G12C
  IC50: 10 to 100 nM
[2]
  IC50: 10 to 100 nM

## CCn1c(-c2cccnc2[C@H](C)OC)c2c3cc(ccc31)-c1cc(O)cc(c1)C[C@H](NC(=O)[C@H](C(C)C)N(C)C(=O)[C@H]1CCC(=O)O1)C(=O)N1CCC[C@H](N1)C(=O)OCC(C)(C)C2 [Compound A405]
[1]
  IC50: 1000 to 10000 nM
KRAS Q61H
  IC50: 10 to 100 nM
NRAS WT
  IC50: 10 to 100 nM
KRAS G13C
  IC50: 10 to 100 nM
KRAS G12S
  IC50: 10 to 100 nM
KRAS G13D
  IC50: 10 to 100 nM
KRAS G12C
  IC50: 10 to 100 nM
NRAS Q61R
  IC50: 100 to 1000 nM
KRAS G12D
  IC50: 100 to 1000 nM
KRAS WT
  IC50: 10 to 100 nM
KRAS G12V
  IC50: 10 to 100 nM
NRAS G12C
  IC50: 10 to 100 nM
[2]
  IC50: 1000 to 10000 nM

## CCn1c(-c2cccnc2[C@H](C)OC)c2c3cc(ccc31)-c1csc(n1)C[C@H](NC(=O)[C@H](C(C)C)N(C)C(=O)N1CC3(CC(N(C)C(C)C)C3)C1)C(=O)N1CCC[C@H](N1)C(=O)OCC(C)(C)C2 [Compound A485]
[1]
  IC50: 10 to 100 nM
KRAS Q61H
  IC50: 10 to 100 nM
NRAS WT
  IC50: 100 to 1000 nM
KRAS G13C
  IC50: 100 to 1000 nM
KRAS G12S
  IC50: 100 to 1000 nM
KRAS G13D
  IC50: 100 to 1000 nM
KRAS G12C
  IC50: 100 to 1000 nM
NRAS Q61R
  IC50: 100 to 1000 nM
KRAS G12D
  IC50: 100 to 1000 nM
KRAS WT
  IC50: 100 to 1000 nM
KRAS G12V
  IC50: 100 to 1000 nM
NRAS G12C
  IC50: 100 to 1000 nM
[2]
  IC50: 10 to 100 nM
